Experimental data from US11364208B2, “Topical compositions” (DSM IP ASSETS B.V., priority 2017, dated 2022).

What was measured:
[1] = system: Malassezia furfur; experiment: Antimicrobial efficacy in analogy to challenge test NF EN ISO11930, Malassezia furfur; assay type: cell-based; settings: for Δ (change of microorganism count t = 0 h to t = 24): 24 h, 0.5 wt.-% of each active; for Δ (change of microorganism count t = 0 h to t = 24) / Malassezia furfur colony count: 22° C., initial count 3300 cfu/ml; for Malassezia furfur colony count: 24 h after contamination, physiological serum 0.85 wt.-% NaCl, 0.5 wt.-% of each active (0.5 wt.-% Erythrulose corresponds to 0.4 wt.-% of active)
Protocol: (§1) The wells were contaminated with Malassezia furfur, Propionibacterium acnes, respectively Aspergillus brasiliensis to obtain the initial contamination as outlined in table 1, 2 and 3. […] The counting of the (remaining) population was carried out 24 h after contamination.

[2] = system: Aspergillus brasiliensis; experiment: Antimicrobial efficacy in analogy to challenge test NF EN ISO11930, Aspergillus brasiliensis; assay type: cell-based; settings: 24 h, 22° C.; for Aspergillus brasiliensis colony count: initial count 10000 cfu/ml
Protocol: as §1
(The term “Log reduction” is a well-known mathematical term used to show the relative number of cells, germs, microbes, etc., reduced in or on something, e.g. a 2 log reduction means the number of microbes is 100 times smaller and a 3 log reduction means the number of microbes is 1000 times smaller).

[3] = 0.5 wt.-% Erythrulose (corresponds to 0.4 wt.-% of active)
[4] = 0.4 wt.-% p-Hydroxyacetophenone

Structure (SMILES)	Δ (change of microorganism count t = 0 h to t = 24) [1]	Malassezia furfur colony count [1] [cfu/ml]	anti-fungal effect against Malassezia furfur (in words) ([1]; concentration of 0.5%)	Log step reduction [2, 3]	Aspergillus brasiliensis colony count [2, 3] [cfu/ml]	Log step reduction [2, 4]	Aspergillus brasiliensis colony count [2, 4] [cfu/ml]
O=C(CO)[C@@H](O)CO [Erythrulose, L-(+)-Erythrulose]	±0%	3300	does not exert any anti-fungal effect	2	100		
CC(=O)c1ccc(O)cc1 [p-Hydroxyacetophenone, 1-(4-hydroxyphenyl)-ethanone]	−83%	550				2	100
